Laboratory results taken from US20180057505A1, “BICYCLIC HETEROARYL COMPOUNDS USEFUL AS INHIBITORS OF THE PAR-2 SIGNALING PATHWAY” (VERTEX PHARMACEUTICALS INCORPORATED, priority 2015, published 2018).

Legend:
Format in all cases: cell-based
PAR2 (HT-29 cells) [1] = biological target: T1, PAR2 (HT-29 cells) (Homo sapiens, UniProt P55085); assay: Ca FLIPR TETRA assay, ANTAGONIST mode, activator 8 μM SLIGKV; conditions: HT-29 cells, activator 8 μM SLIGKV
T1 construct: host or cells: HT-29
T1 sequence (P55085 26-397): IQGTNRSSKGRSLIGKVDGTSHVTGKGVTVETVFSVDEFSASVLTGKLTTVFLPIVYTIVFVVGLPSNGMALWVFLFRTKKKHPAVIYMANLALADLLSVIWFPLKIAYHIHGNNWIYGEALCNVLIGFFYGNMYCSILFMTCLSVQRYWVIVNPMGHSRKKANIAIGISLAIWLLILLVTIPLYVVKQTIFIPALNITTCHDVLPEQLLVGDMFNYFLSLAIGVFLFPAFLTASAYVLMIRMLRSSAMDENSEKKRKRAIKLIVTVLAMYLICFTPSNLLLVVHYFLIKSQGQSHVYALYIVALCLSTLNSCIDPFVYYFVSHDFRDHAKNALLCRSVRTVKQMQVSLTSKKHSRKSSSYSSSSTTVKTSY
In short: (§1)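 HT-29 cells plated overnight at 37 °C in 1% FBS/McCoy's, loaded with calcium 5 dye (45 min 37 °C, 15 min r.t.), then preincubated with compounds 30 min at r.t. before a fixed activator challenge. Intracellular Ca2+ read by FLIPR Tetra; a first read checks compound-alone activation.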

PAR2 (HT-29 cells) [2] = biological target: T1, PAR2 (HT-29 cells); assay: Ca FLIPR TETRA assay, ANTAGONIST mode, activator 3.1 U/mL trypsin; conditions: HT-29 cells, activator 3.1 U/mL trypsin
In short: as §1

[3] = tested on: Thrombin-stimulated Ca2+ response in HT-29 cells; assay: Ca FLIPR TETRA assay, ANTAGONIST mode, activator 1 U/mL Thrombin; conditions: HT-29 cells, activator 1 U/mL Thrombin
In short: as §1

[4] = tested on: UTP-stimulated Ca2+ response in HT-29 cells; assay: Ca FLIPR TETRA assay, ANTAGONIST mode, activator 0.6 μM UTP; conditions: HT-29 cells, activator 0.6 μM UTP
In short: as §1

[5] = Method A: maximal concentration of antagonist 0.1, 1 or 2 μM
[6] = maximal antagonist concentration per Method (A: 0.1, 1 or 2 μM; B: 50 μM)

How did the IC50 (PAR2 (HT-29 cells) [1]; [5]) turn out when `CC1(C)CCC(c2cc(C(C)(C)C)c3oc(C(=O)N4CCN(C(=O)c5ccc(C(=O)O)nc5)CC4(C)C)cc3n2)CC1` [Example I-380] was run?
The IC50 was 210 nM.

And the IC50 (PAR2 (HT-29 cells) [2]; [5])?
The IC50 was 240 nM.

What about the IC50 ([3]; Homo sapiens) of the same compound?
Its IC50 is over 2000 nM.

What about the IC50 ([4]; Homo sapiens) of the same compound?
Its IC50 is over 2000 nM.

Which results are given for `CC(C)(C)c1cc(-c2ccc(F)cc2)nc2cc(C(=O)N3CCN(C(=O)C45CC(C(=O)O)(C4)C5)CC3(C)C)oc12` [Example I-191]?
IC50 (PAR2 (HT-29 cells) [1]; [6]): 403 nM; IC50 (PAR2 (HT-29 cells) [2]; [6]): 713 nM; IC50 ([3]; Homo sapiens): > 1000 nM; IC50 ([4]; Homo sapiens): > 1000 nM

Which results are given for `CC(C)(C)c1cc(N2CCC[C@@H]2C(F)(F)F)nc2cc(C(=O)N3CCN(C(=O)[C@H]4C[C@](C)(O)C4)CC3(C)C)oc12` [Example I-440]?
IC50 (PAR2 (HT-29 cells) [1]; [5]): 520 nM; IC50 (PAR2 (HT-29 cells) [2]; [5]): 640 nM; IC50 ([3]; Homo sapiens): > 2000 nM; IC50 ([4]; Homo sapiens): > 2000 nM

What does the source list for `CC(C)(C)c1cc(-c2ccc(Cl)cc2)nc2cc(C(=O)N3CCN(c4cccc(C(=O)O)n4)C(=O)C3(C)C)oc12` [Example I-460]?
IC50 (PAR2 (HT-29 cells) [1]; [5]): 10.6 nM; IC50 (PAR2 (HT-29 cells) [2]; [5]): 14 nM; IC50 ([3]; Homo sapiens): 1730 nM; IC50 ([4]; Homo sapiens): 1870 nM

`CNC1CCN(C(=O)c2cc3nc(-c4ccc(Cl)c(F)c4)cc(C(C)(C)C)c3o2)C(C)(C)C1` (centres unmarked) [Example I-549] was tested. Which IC50 (PAR2 (HT-29 cells) [1]; [5]) did it give?
Its IC50 is 1100 nM.

What about the IC50 (PAR2 (HT-29 cells) [2]; [5]) of the same compound?
The IC50 was 1400 nM.

What about the IC50 ([3]; Homo sapiens) of the same compound?
The IC50 was over 2000 nM.

What about the IC50 ([4]; Homo sapiens) of the same compound?
The IC50 was over 2000 nM.

Which results are given for `CC(C)(C)c1cc(-c2ccc(Cl)cc2)nc2cc(C(=O)N3CCN(c4ncccn4)C(=O)C3(C)C)oc12` [Example I-483]?
IC50 (PAR2 (HT-29 cells) [1]; [5]): 3.6 nM; IC50 (PAR2 (HT-29 cells) [2]; [5]): 2.8 nM; IC50 ([3]; Homo sapiens): > 2000 nM; IC50 ([4]; Homo sapiens): > 2000 nM

With `CC(C)c1cc(-c2ccc(F)cc2)nc2sc(C(=O)N3CCN(C(=O)[C@H](O)CC(C)(C)C)[C@@H](C)C3)nc12` [Example I-130] as the compound, how does the IC50 (PAR2 (HT-29 cells) [1]; [6]) read?
Its IC50 is 2100 nM.

What about the IC50 (PAR2 (HT-29 cells) [2]; [6]) of the same compound?
The IC50 was 2600 nM.

What about the IC50 ([3]; Homo sapiens) of the same compound?
Its IC50 is over 35000 nM.

And the IC50 ([4]; Homo sapiens)?
The IC50 was 30000 nM.

`CN1CC(C)(C)N(C(=O)c2cc3nc(-c4ccc(Cl)c(F)c4)cc(C(C)(C)C)c3o2)CCC1=O` [Example I-526] was tested. Which IC50 (PAR2 (HT-29 cells) [1]; [5]) did it give?
Its IC50 is 240 nM.

And the IC50 (PAR2 (HT-29 cells) [2]; [5])?
The IC50 was 147 nM.

What about the IC50 ([3]; Homo sapiens) of the same compound?
The IC50 was over 2000 nM.

What about the IC50 ([4]; Homo sapiens) of the same compound?
The IC50 was over 2000 nM.

What does the source list for `Cc1oc(C2CCN(C(=O)c3cc4nc(-c5ccc(Cl)c(F)c5)cc(C(C)(C)C)c4o3)C(C)(C)C2)nc1C(=O)O` (centres unmarked) [Example I-430]?
IC50 (PAR2 (HT-29 cells) [1]; [5]): 0.6 nM; IC50 (PAR2 (HT-29 cells) [2]; [5]): 0.9 nM; IC50 [3]: > 2000 nM; IC50 [4]: > 2000 nM

What does the source list for `CC(C)(C)c1cc(-c2cccc(Cl)c2)nc2cc(C(=O)N3CCNC(=O)C3(C)C)oc12` [Example I-244]?
IC50 (PAR2 (HT-29 cells) [1]; [6]): 19 nM; IC50 (PAR2 (HT-29 cells) [2]; [6]): 27 nM; IC50 ([3]; Homo sapiens): > 2000 nM; IC50 ([4]; Homo sapiens): > 2000 nM

What does the source list for `CC(C)(C)c1cc(-c2ccc(Cl)c(F)c2)nc2cc(C(=O)N3CCN(C(=O)NS(C)(=O)=O)CC3(C)C)oc12` [Example I-527]?
IC50 (PAR2 (HT-29 cells) [1]; [5]): 31 nM; IC50 (PAR2 (HT-29 cells) [2]; [5]): 45 nM; IC50 ([3]; Homo sapiens): > 2000 nM; IC50 ([4]; Homo sapiens): > 2000 nM

With `Cc1cc(-c2cc(C(C)(C)C)c3oc(C(=O)N4CCN(c5cn[nH]c5)C(=O)C4(C)C)cc3n2)ccc1Cl` [Example I-275, 4-[7-tert-butyl-5-(4-chloro-3-methyl-phenyl)furo[3,2-b]pyridine-2-carbonyl]-3,3-dimethyl-1-(1H-pyrazol-4-yl)piperazin-2-one] as the compound, how does the IC50 (PAR2 (HT-29 cells) [1]; [6]) read?
Its IC50 is 16 nM.

What about the IC50 (PAR2 (HT-29 cells) [2]; [6]) of the same compound?
The IC50 was 20 nM.

What about the IC50 ([3]; Homo sapiens) of the same compound?
The IC50 was over 2000 nM.

And the IC50 ([4]; Homo sapiens)?
Its IC50 is over 2000 nM.

Which results are given for `CC(C)(C)c1cc(-c2ccc(Cl)cc2)nc2cc(C(=O)N3CCN(c4ccc(C(=O)O)cn4)C(=O)C3(C)C)oc12` [Example I-282, 6-[4-[7-tert-butyl-5-(4-chlorophenyl)furo[3,2-b]pyridine-2-carbonyl]-3,3-dimethyl-2-oxo-piperazin-1-yl]pyridine-3-carboxylic acid]?
IC50 (PAR2 (HT-29 cells) [1]; [6]): 7.5 nM; IC50 (PAR2 (HT-29 cells) [2]; [6]): 8.3 nM; IC50 ([3]; Homo sapiens): 1600 nM; IC50 ([4]; Homo sapiens): 1800 nM

With `CC(C)(C)c1cc(-c2ccc(Cl)c(F)c2)nc2cc(C(=O)N3CCN(C(=O)CC4(C(=O)O)CCC4)CC3(C)C)oc12` [Example I-372] as the compound, how does the IC50 (PAR2 (HT-29 cells) [1]; [5]) read?
The IC50 was 0.2 nM.

What about the IC50 (PAR2 (HT-29 cells) [2]; [5]) of the same compound?
The IC50 was 0.3 nM.

What about the IC50 ([3]; Homo sapiens) of the same compound?
The IC50 was over 2000 nM.

What about the IC50 ([4]; Homo sapiens) of the same compound?
The IC50 was over 2000 nM.

How did the IC50 (PAR2 (HT-29 cells) [1]; [5]) turn out when `Cc1cc(C(=O)O)nc(N2CCN(C(=O)c3cc4nc(-c5ccc(Cl)cc5)cc(C(C)(C)C)c4o3)C(C)(C)C2)n1` [Example I-401] was run?
The IC50 was 0.3 nM.

What about the IC50 (PAR2 (HT-29 cells) [2]; [5]) of the same compound?
Its IC50 is 0.5 nM.

And the IC50 ([3]; Homo sapiens)?
The IC50 was 960 nM.

What about the IC50 ([4]; Homo sapiens) of the same compound?
The IC50 was 710 nM.

Which IC50 (PAR2 (HT-29 cells) [1]; [6]) does the source give for `CC(C)c1cc(-c2ccc(F)cc2)nc2cc(C(=O)N3CCN(C(=O)C(O)c4ccc(F)cc4)[C@@H](C)C3)oc12` (some centres unmarked) [Example I-83] here?
Its IC50 is 4.5 nM.

What about the IC50 (PAR2 (HT-29 cells) [2]; [6]) of the same compound?
Its IC50 is 7.8 nM.

What about the IC50 ([3]; Homo sapiens) of the same compound?
Its IC50 is 11000 nM.

And the IC50 ([4]; Homo sapiens)?
The IC50 was 29000 nM.

What does the source list for `CC(C)(C)c1cc(-c2ccc(Cl)c(F)c2)nc2cc(C(=O)N3CCN(C(=O)[C@@H]4CCCC[C@@H]4C(=O)O)CC3(C)C)oc12` [Example I-500]?
IC50 (PAR2 (HT-29 cells) [1]; [5]): 0.4 nM; IC50 (PAR2 (HT-29 cells) [2]; [5]): 0.5 nM; IC50 ([3]; Homo sapiens): > 2000 nM; IC50 ([4]; Homo sapiens): > 2000 nM
